Values joined by “and” are separate entries in the source; they are usually repeats but may differ in a detail not shown here. Identical values can stand only once. Toxic doses and inconclusive results are not listed. How the source made its calls: active means survival T/C of 150% or more; inactive means T/C below 125% in these data.
Test system: P388 leukemia ip, CD2F1 mice, survival T/C
Test: NCI In Vivo Anticancer Drug Screen. Data for tumor model P388 Leukemia (intraperitoneal) in CD2F1 (CDF1) mice
Conditions: endpoint: median survival time, higher = longer survival
Method in brief: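 Mice carrying the transplanted tumor received test compound or vehicle. Survival was recorded in each group, and the value is the treated-group measurement divided by that of the vehicle-treated control group.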

[1] = dose: 50.0 mg/kg/injection, schedule: Q01DX009 (ip), vehicle: saline with Tween-80
[2] = dose: 100.0 mg/kg/injection, schedule: Q01DX009 (ip), vehicle: saline with Tween-80
[3] = dose: 200.0 mg/kg/injection, schedule: Q01DX009 (ip), vehicle: saline with Tween-80
[4] = dose: 100.0 mg/kg/injection, schedule: Q01DX001 (ip), vehicle: Klucel (hydroxypropylcellulose) (HPC)
[5] = dose: 200.0 mg/kg/injection, schedule: Q01DX001 (ip), vehicle: Klucel (hydroxypropylcellulose) (HPC)
[6] = dose: 400.0 mg/kg/injection, schedule: Q01DX001 (ip), vehicle: Klucel (hydroxypropylcellulose) (HPC)
[7] = dose: 50.0 mg/kg/injection, schedule: Q01DX009 (ip), vehicle: Klucel (hydroxypropylcellulose) (HPC)
[8] = dose: 100.0 mg/kg/injection, schedule: Q01DX009 (ip), vehicle: Klucel (hydroxypropylcellulose) (HPC)
[9] = dose: 200.0 mg/kg/injection, schedule: Q01DX009 (ip), vehicle: Klucel (hydroxypropylcellulose) (HPC)
[10] = dose: 100.0 mg/kg/injection, schedule: Q01DX001 (ip), vehicle: saline with Tween-80
[11] = dose: 200.0 mg/kg/injection, schedule: Q01DX001 (ip), vehicle: saline with Tween-80
[12] = dose: 400.0 mg/kg/injection, schedule: Q01DX001 (ip), vehicle: saline with Tween-80
[13] = dose: 100.0 mg/kg/injection, schedule: Q04DX003 (ip), vehicle: saline
[14] = dose: 200.0 mg/kg/injection, schedule: Q04DX003 (ip), vehicle: saline
[15] = dose: 400.0 mg/kg/injection, schedule: Q04DX003 (ip), vehicle: saline

Measured: T/C

C/C1=C(O[Si](C)(C)C)/C(O[Si](C)(C)C)=C(/C)CCCC1
inactive: [1] 100 % of control | [2] 94 % of control | [3] 97 % of control

CC1(C)C(=O)N(Cl)C(=O)N1Cl
inactive: dose: 6.25 mg/kg/injection, schedule: Q01DX005 (ip), vehicle: Klucel (hydroxypropylcellulose) (HPC) 100 % of control and 95 % of control | dose: 6.25 mg/kg/injection, schedule: Q01DX005 (ip), vehicle: saline with Tween-80 92 % of control | dose: 12.5 mg/kg/injection, schedule: Q01DX005 (ip), vehicle: Klucel (hydroxypropylcellulose) (HPC) 102 % of control and 101 % of control | dose: 12.5 mg/kg/injection, schedule: Q01DX005 (ip), vehicle: saline with Tween-80 87 % of control | dose: 16.5 mg/kg/injection, schedule: Q01DX009 (ip), vehicle: saline with Tween-80 104 % of control | dose: 25.0 mg/kg/injection, schedule: Q01DX005 (ip), vehicle: Klucel (hydroxypropylcellulose) (HPC) 106 % of control | dose: 25.0 mg/kg/injection, schedule: Q01DX005 (ip), vehicle: saline with Tween-80 97 % of control

O=C1C(c2ccccc2)=C(c2ccccc2)/C1=C/c1ccc(Cl)cc1
inactive: [4] 101 % of control | [5] 105 % of control | [6] 104 % of control

O=C(Nc1cc(NC(=O)n2nnc3ccccc32)c(Br)cc1Br)n1nnc2ccccc21
inactive: [7] 91 % of control | [8] 89 % of control | [9] 97 % of control

Fc1cccc(NC(=S)SCc2ccco2)c1
inactive: dose: 50.0 mg/kg/injection, schedule: Q01DX009 (ip), vehicle: suspension in saline 93 % of control | dose: 100.0 mg/kg/injection, schedule: Q01DX009 (ip), vehicle: suspension in saline 90 % of control | dose: 200.0 mg/kg/injection, schedule: Q01DX009 (ip), vehicle: suspension in saline 107 % of control

CC1=NCCN1CCNC(=O)c1ccc(C(=O)NCCN2CCN=C2C)cc1
inactive: dose: 1.88 mg/kg/injection, schedule: Q01DX005 (ip), vehicle: saline with Tween-80 105 % of control | dose: 3.75 mg/kg/injection, schedule: Q01DX005 (ip), vehicle: saline with Tween-80 100 % of control | dose: 7.5 mg/kg/injection, schedule: Q01DX005 (ip), vehicle: saline with Tween-80 100 % of control and 115 % of control

Cc1cc(=O)c2cc3c(cc2[nH]1)OCO3
inactive: dose: 50.0 mg/kg/injection, schedule: Q01DX005 (ip), vehicle: Klucel (hydroxypropylcellulose) (HPC) 106 % of control | dose: 100.0 mg/kg/injection, schedule: Q01DX005 (ip), vehicle: Klucel (hydroxypropylcellulose) (HPC) 100 % of control | dose: 200.0 mg/kg/injection, schedule: Q01DX005 (ip), vehicle: Klucel (hydroxypropylcellulose) (HPC) 100 % of control

Cc1ccc(O)c(CN2CCN(Cc3cc(C)ccc3O)CC2)c1
inactive: dose: 60.0 mg/kg/injection, schedule: Q01DX005 (ip), vehicle: Klucel (hydroxypropylcellulose) (HPC) 86 % of control | dose: 120.0 mg/kg/injection, schedule: Q01DX005 (ip), vehicle: Klucel (hydroxypropylcellulose) (HPC) 91 % of control | dose: 240.0 mg/kg/injection, schedule: Q01DX005 (ip), vehicle: Klucel (hydroxypropylcellulose) (HPC) 88 % of control

C/C(CC(O)(c1ccccc1)c1ccccc1)=N\SC(c1ccccc1)(c1ccccc1)c1ccccc1
inactive: [10] 106 % of control | [11] 100 % of control | [12] 98 % of control

CCOC(=O)c1cn2ccccc2c(C(=O)c2cccnc2)c1=N
inactive: [13] 91 % of control | [14] 96 % of control | [15] 96 % of control

O=C1CCCCCCCC(=O)Nc2ccc3nc4ccccc4c(c3c2)SCCCCCCCCCSc2c3ccccc3nc3ccc(cc23)N1
inactive: dose: 60.0 mg/kg/injection, schedule: Q01DX005 (ip), vehicle: saline with Tween-80 88 % of control | dose: 120.0 mg/kg/injection, schedule: Q01DX005 (ip), vehicle: saline with Tween-80 99 % of control | dose: 240.0 mg/kg/injection, schedule: Q01DX005 (ip), vehicle: saline with Tween-80 96 % of control

CCOC(=O)C(CN1C(=O)c2ccccc2C1=O)(NC(C)=O)C(=O)OCC
inactive: dose: 25.0 mg/kg/injection, schedule: Q01DX009 (ip), vehicle: other 103 % of control | dose: 50.0 mg/kg/injection, schedule: Q01DX009 (ip), vehicle: other 106 % of control | dose: 100.0 mg/kg/injection, schedule: Q01DX009 (ip), vehicle: other 103 % of control | dose: 200.0 mg/kg/injection, schedule: Q01DX009 (ip), vehicle: other 114 % of control | dose: 400.0 mg/kg/injection, schedule: Q01DX009 (ip), vehicle: other 120 % of control

Nc1nc(-c2ccccc2)nc(Cl)c1I
inactive: dose: 25.0 mg/kg/injection, schedule: Q01DX009 (ip), vehicle: saline with Tween-80 103 % of control | [1] 105 % of control | [2] 102 % of control | [13] 94 % of control | [3] 105 % of control | [14] 94 % of control | [15] 101 % of control

CCOC(=O)Nc1nc2ccc(C(=O)OCC)cc2[nH]1
inactive: [13] 108 % of control | [14] 101 % of control | [15] 108 % of control

CSc1cc(C)c(O)c(C)c1
inactive: dose: 100.0 mg/kg/injection, schedule: Q04DX003 (ip), vehicle: other 109 % of control | dose: 200.0 mg/kg/injection, schedule: Q04DX003 (ip), vehicle: other 100 % of control | dose: 400.0 mg/kg/injection, schedule: Q04DX003 (ip), vehicle: other 100 % of control

O=C(OC(C(F)(F)F)C(F)(F)F)c1ccccc1
inactive: dose: 100.0 mg/kg/injection, schedule: Q04DX003 (ip), vehicle: Klucel (hydroxypropylcellulose) (HPC) 105 % of control | dose: 200.0 mg/kg/injection, schedule: Q04DX003 (ip), vehicle: Klucel (hydroxypropylcellulose) (HPC) 101 % of control | dose: 400.0 mg/kg/injection, schedule: Q04DX003 (ip), vehicle: Klucel (hydroxypropylcellulose) (HPC) 109 % of control

CCCCCCCSc1nc2ccc(N=Cc3ccccc3O)cc2s1
inactive: [7] 93 % of control | [8] 103 % of control | [9] 103 % of control

O=S(=O)(NCCNS(=O)(=O)c1ccccc1)c1ccccc1
inactive: dose: 25.0 mg/kg/injection, schedule: Q01DX009 (ip), vehicle: Klucel (hydroxypropylcellulose) (HPC) 90 % of control | [7] 100 % of control | [8] 90 % of control | [9] 91 % of control

Cc1ccn2c(=O)c(Br)c(C)nc2c1
inactive: [10] 92 % of control | [11] 94 % of control | [12] 97 % of control

CN(C)c1c(-c2ccccc2)nnc(-c2ccccc2)c1-c1ccccc1
inactive: [4] 103 % of control | [5] 100 % of control | [6] 101 % of control

CC(=O)N/N=C/C=C/c1ccccc1
inactive: dose: 3.13 mg/kg/injection, schedule: Q01DX009 (ip), vehicle: saline with Tween-80 117 % of control | dose: 6.25 mg/kg/injection, schedule: Q01DX009 (ip), vehicle: saline with Tween-80 106 % of control | dose: 12.5 mg/kg/injection, schedule: Q01DX009 (ip), vehicle: saline with Tween-80 104 % of control

O=[N+]([O-])c1cc2no[n+]([O-])c2cc1N1CCOCC1
inactive: dose: 3.75 mg/kg/injection, schedule: Q01DX009 (ip), vehicle: saline 112 % of control and 88 % of control | dose: 7.5 mg/kg/injection, schedule: Q01DX009 (ip), vehicle: saline 101 % of control and 92 % of control | dose: 15.0 mg/kg/injection, schedule: Q01DX009 (ip), vehicle: saline 91 % of control and 97 % of control | dose: 30.0 mg/kg/injection, schedule: Q01DX009 (ip), vehicle: saline 103 % of control and 96 % of control

Reference: PubChem BioAssay AID330 (DTP/NCI, 2004)
